This is an account of results in ChEMBL document CHEMBL1201862, “PubChem BioAssay data set” (2004).

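Five concentrations, 48 hours, 96-well plates. Abbreviation: GI50, concentration required for 50% inhibition of growth.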 Active and inactive are the calls of the source. Rule as the data show it: active = GI50 up to about 1.1 µM and inactive = higher. Some results are limits rather than exact numbers.

What all share (assay): inhibition of tumour cell growth, NCI panel, 48 h
Test [1] relates to SF-295.
In test [2] the test system is OVCAR-8.
For test [3], the system named is SR.
Test [4] deals with SN12C.
For test [5], the system named is PC-3.
Test [6] relates to A549.
Test [7] has as its system IGROV-1.
The subject of test [8] is HT-29.
The subject of test [9] is MCF7.
In test [10] the test system is A498.
For test [11], the system named is HOP-62.
The subject of test [12] is HCT-15.
The subject of test [13] is SK-MEL-28.
In test [14] the test system is KM12.
In test [15] the test system is MOLT-4.
The subject of test [16] is SK-OV-3.
Test [17] deals with ACHN.
The subject of test [18] is NCI-H522.
Test [19] relates to RXF 393.
Test [20] deals with SK-MEL-2.

On to `Cc1nn(C(=O)Cc2ccccc2)c2c1C(c1ccc([N+](=O)[O-])cc1)SC(=N)N2` (stereo not drawn), for which the GI50 in [1], in [2], in [3], in test [4], in test [5] and in test [6] was > 100 µM (inactive) in each case. Moreover, the GI50 in test [7] was > 100 µM (inactive); in [8] it was > 100 µM (inactive); in [9], > 100 µM (inactive); in test [10], > 100 µM (inactive); in test [11] it was > 100 µM (inactive); in test [12], more than 100 µM. The GI50 in [13], in test [14], in test [15], in [16], in test [17] and in test [18] was > 100 µM (inactive) each time.

As to `Clc1cc(Cl)ncn1`, the GI50 in test [1], in test [2], in test [3], in test [4], in test [5] and in test [6] was > 100 µM (inactive) each time. For the same compound, the GI50 was > 100 µM (inactive) in [7]; > 100 µM (inactive) in test [8]; > 100 µM (inactive) in test [9]; > 100 µM (inactive) in test [11]; > 100 µM (inactive) in test [19]; more than 100 µM in test [12]. Besides, the GI50 in [13], in test [14], in test [15], in [16], in test [17] and in test [18] was > 100 µM (inactive) throughout.

Take `CN(C)CCNc1ccc([N+](=O)[O-])c2sc3ccccc3c(=O)c12`: the GI50 in test [1] was 4.24 µM (inactive); in test [2] it was 3.63 µM (inactive); in [3], 1.56 µM (inactive); in test [4], 4.46 µM (inactive); in test [5] it was 4.11 µM (inactive); in [6], 3.83 µM (inactive). Further, the GI50 was 1.73 µM (inactive) in test [7]; 2.57 µM (inactive) in test [8]; 3.41 µM (inactive) in [9]; 2.81 µM (inactive) in test [11]; 14.4 µM (inactive) in test [19]; 3.67 µM in test [12]. For the same compound, the GI50 was 7.08 µM (inactive) in test [13]; 14.1 µM (inactive) in test [20]; 5.19 µM (inactive) in [14]; 0.706 µM (active) in [15]; 7.71 µM (inactive) in [16]; 2.51 µM (inactive) in test [17]. Also, in test [18], the GI50 is 1.56 µM (inactive).

In the case of `O=C1CC(c2ccccc2)Oc2ccccc21` (stereo not drawn) [FLAVANONE], the GI50 in [1] is 58.1 µM (inactive); in [2], 48.9 µM (inactive); in test [3], 24 µM (inactive); in test [5], 38.5 µM (inactive); in test [7], 23.4 µM (inactive); in test [8], 28 µM (inactive). Also, the GI50 was 37.8 µM (inactive) in test [9]; 30.3 µM (inactive) in [10]; 48.4 µM (inactive) in test [11]; 36.2 µM (inactive) in test [19]; 26.1 µM in test [12]; > 100 µM (inactive) in test [13]. Besides, the GI50 is 30.1 µM (inactive) in test [20]; 35.7 µM (inactive) in test [14]; 13.7 µM (inactive) in test [15]; 84.1 µM (inactive) in [16]; 47.6 µM (inactive) in [17].

Take `O=C(OCc1ccccc1)C1(N2CN(C3(C(=O)OCc4ccccc4)CCCC3)CN(C3(C(=O)OCc4ccccc4)CCCC3)C2)CCCC1`: the GI50 in test [1], in test [2], in test [3], in test [4], in [5] and in test [6] was > 10 µM (inactive) throughout. The GI50 is > 10 µM (inactive) in test [7]; > 10 µM (inactive) in test [8]; > 10 µM (inactive) in test [9]; > 10 µM (inactive) in [11]; > 10 µM (inactive) in test [19]; more than 10 µM in test [12]. The GI50 in test [13], in test [20], in [14], in [15], in test [16] and in test [17] was > 10 µM (inactive) in each case. For the same compound, the GI50 in test [18] was > 10 µM (inactive).

`CN1c2ccccc2C2=C(c3ccccc3)CC[C@@H](C(=O)N3C4CC5CC[C@@]4(CS3(=O)=O)C5(C)C)[C@@H]21` (stereo partly drawn): the GI50 was > 100 µM (inactive) in test [1]; > 100 µM (inactive) in test [2]; > 100 µM (inactive) in test [3]; > 100 µM (inactive) in test [4]; 4.1 µM (inactive) in test [5]; > 100 µM (inactive) in test [6]. For the same compound, the GI50 was > 100 µM (inactive) in test [7]; > 100 µM (inactive) in [8]; > 100 µM (inactive) in test [9]; > 100 µM (inactive) in [10]; > 100 µM (inactive) in test [11]; more than 100 µM in test [12]. For the same compound, the GI50 in test [13] was > 100 µM (inactive); in [14], > 100 µM (inactive); in test [15] it was 4.58 µM (inactive); in test [16], > 100 µM (inactive); in [17], > 100 µM (inactive); in [18], 92.3 µM (inactive).

Turning to `OC(c1ccc(F)cc1)C(F)(F)c1nc2ccccc2o1` (stereo not drawn), the GI50 in test [1] is > 100 µM (inactive); in test [2], 51.2 µM (inactive); in [3] it was > 100 µM (inactive); in [5] it was > 100 µM (inactive); in test [7], > 100 µM (inactive); in test [8], > 100 µM (inactive). The GI50 in [9] was > 100 µM (inactive); in [10] it was 34.4 µM (inactive); in test [11] it was 62.5 µM (inactive); in test [19], 39.4 µM (inactive); in test [12], more than 100 µM; in test [13], > 100 µM (inactive). The GI50 in test [20] is > 100 µM (inactive); in test [14], 44.3 µM (inactive); in test [15], 46.6 µM (inactive); in test [16] it was > 100 µM (inactive); in [17], > 100 µM (inactive).

Turning to `O=[N+]([O-])C(=C(N1CCOCC1)N1CCOCC1)/C(Cl)=C(\Cl)Br`, the GI50 was > 100 µM (inactive) in [1]; 24.1 µM (inactive) in test [2]; 17.2 µM (inactive) in test [3]; 17 µM (inactive) in test [4]; 35 µM (inactive) in [5]; > 100 µM (inactive) in test [6]. Also, the GI50 in test [8] was 26.8 µM (inactive); in test [9], > 10 µM (inactive); in test [10] it was 37.4 µM (inactive); in test [11], > 100 µM (inactive); in test [12] it was 15.2 µM; in [13], 17.4 µM (inactive). In addition, the GI50 is 21.8 µM (inactive) in [20]; 31.4 µM (inactive) in test [14]; 15.3 µM (inactive) in test [15]; 24.8 µM (inactive) in [17]; 2.41 µM (inactive) in test [18].
